How the values were obtained:
HeLa = assay: cells; settings: Homo sapiens, 24 h
in vitro = settings: human, HEK293 cells

EC50 (HeLa) | EC50 at 24 h (in vitro) | SMILES
6.19 µM | 15.9 µM | O=C(CCC(=O)NCCc1ccc(Cl)c(Cl)c1)NCCCCn1cnc2c(Br)c(Br)c(Br)c(Br)c21
2.1 µM | – | O=C(O)c1ccc2c(c1)nc(Nc1cccc(Cl)c1)c1ccncc12 [SILMITASERTIB]

Reference: ChEMBL document CHEMBL5154638, “Molecular Plasticity of Crystalline CK2α' Leads to KN2, a Bivalent Inhibitor of Protein Kinase CK2 with Extraordinary Selectivity” (J Med Chem, 2022)
